Drawing on patent US20250388605A1, “HETEROBIFUNCTIONAL COMPOUNDS AND METHODS OF TREATING DISEASE” (Halda Therapeutics OpCo, Inc., priority 2022, published 2025), this text covers GI50 for 16 compounds.

Experiment [1] concerns T-Rex 293 cell line SC3 cells having increased expression of androgen receptor protein due to exposure to doxycycline. The experiment is described as follows: Cellular growth inhibition, T-Rex 293 SC3 cells with doxycycline (increased androgen receptor expression), CellTiter-Glo. The format is cell-based. The note with it: T-Rex 293 SC3 cells with 10 ng/mL doxycycline (increased androgen receptor expression), 72 hours, CellTiter-Glo 2.0. The protocol: (§1) The following types of cells were prepared for this experiment: (i) a T-Rex 293 cell line having increased expression of androgen receptor protein due to exposure to doxycycline and (ii) a T-Rex 293 cell line lacking increased expression of androgen receptor protein. Ability of the test compounds to inhibit proliferation of the foregoing cell types was evaluated according to the procedures set forth below.
(§2) The doxycycline-inducible androgen receptor protein expressing cell line was established using the following protocol: T-Rex 293 cells were purchased from Invitrogen (Cat #R71007) and transfected using Lipofectamine 2000 with the wild-type androgen receptor protein sequence cloned into the pcDNA4/TO vector. Transfected cells were selected using 400 μg/mL Zeocin (Invitrogen Cat #R25001). Following selection, single clones were raised and maintained in Dulbecco's Modified Eagle Medium (DMEM) supplemented with 10% w/w Tetracycline-free fetal bovine serum (FBS) and 250 μg/mL Zeocin. Clones were analyzed for expression of androgen receptor protein in the presence and absence of 10 ng/mL doxycycline (Sigma Cat #D9891), and a single doxycycline-inducible clone (hereinafter “SC3”) was selected for use in downstream assays.
(§3) The SC3 cells were seeded on poly-D-lysine coated, black clear-bottom 384-well plates at 2500/well, in 25 μL Phenol Red Free Dulbecco's Modified Eagle Medium (DMEM) supplemented with 10% w/w charcoal-dextran treated fetal bovine serum (FBS) and 1% w/w pen-strep, with or without 10 ng/mL doxycycline. Pen-Strep is a commercially available mixture of penicillin G and streptomycin, which is used in mammalian cell culture media to prevent bacterial contamination. Phenol Red Free Dulbecco's Modified Eagle Medium (DMEM) supplemented with 10% w/w charcoal-dextran treated fetal bovine serum (FBS) and 1% w/w pen-strep, with or without 10 ng/mL doxycycline is herein referred to as Treatment Medium. Following seeding of cells in the plates, the plates were spun at 300×g for 30 seconds, then equilibrated to room temperature for 30 minutes, and then deposited in a humidified tissue culture incubator maintained at 37° C. with 5% CO2.
(§4) At 24 hours after seeding of the cells, dilutions of test compound were prepared in DMSO and dissolved in Treatment Medium, to achieve a final DMSO concentration of 0.5% w/w, thereby providing the Test Compound Solution. A 25 μL aliquot of the Test Compound Solution was added to cells in the well plates. An equal volume of a solution containing DMSO and Treatment Medium was used as a negative control. Following treatment of cells with Test Compound Solution or said equal volume of a solution containing DMSO and Treatment Medium, the plates were spun at 300×g for 30 seconds, and then left in an incubator for 72 hours.
(§5) At the end of the treatment duration, cell viability was quantified with CellTiter-Glo 2.0 reagent (Promega Cat #G9243). For this purpose, plates were equilibrated to room temperature for 30 minutes, and then 25 μL of CellTiter-Glo 2.0 reagent was added to cells in the plate wells. Plates were then agitated on a shaker for two minutes at 500 rpm and subsequently incubated at room temperature for 10 minutes. Following incubation, the plates were spun at 3000×g for 30 seconds, then sealed with an optical adhesive cover, and luminescence readings were measured with an EnVision Plate Reader.
(§6) Data was normalized using zero luminescence for baseline. A four-parameter non-linear regression curve fit was applied to dose-response data in GraphPad Prism data analysis software to determine the half-maximal growth inhibitory concentration (GI50) for each test compound.

Experiment [2] concerns T-Rex 293 cell line SC3 cells lacking increased expression of androgen receptor protein. The experiment is described as follows: Cellular growth inhibition, T-Rex 293 SC3 cells without doxycycline (no increased androgen receptor expression), CellTiter-Glo. The experiment is classed as cell-based. The note with it: T-Rex 293 SC3 cells not exposed to doxycycline (no increased androgen receptor expression), 72 hours. The protocol: as §1, §2, §3, §4, §5, §6

Another experiment has as its system VCaP cells. The experiment is described as follows: Cellular growth inhibition assay for VCaP cells, CellTiter-Glo. The format is cell-based, human. Conditions: 72 hours. The protocol: VCaP cells were purchased from American Type Cell Culture (ATCC Cat #CRL2876) and then seeded on poly-D-lysine coated, black clear-bottom 384-well plates at 5000/well in 25 μL Dulbecco's Modified Eagle Medium (DMEM) supplemented with 10% w/w Fetal bovine serum (FBS) and 1% w/w Pen-Strep. Pen-Strep is a commercially available mixture of penicillin G and streptomycin, which is used in mammalian cell culture media to prevent bacterial contamination. Dulbecco's Modified Eagle Medium (DMEM) supplemented with 10% w/w fetal bovine serum (FBS) and 1% w/w Pen-Strep is herein referred to as Treatment Medium. Following seeding of cells in the plates, the plates were spun at 300×g for 30 seconds, then equilibrated to room temperature for 30 minutes, and then deposited in a humidified tissue culture incubator maintained at 37° C. with 5% CO2.
as §4, §5, §6

As to `CCS(=O)(=O)Nc1ccc(Oc2cccc(OCCOCCOCCOCCOCCOCCOCCN(C)c3ncc(C(=O)N[C@H]4C(C)(C)[C@H](Oc5ccc(C#N)c(Cl)c5)C4(C)C)cn3)c2)c(-c2cn(C)c(=O)c3[nH]ccc23)c1` [Compound I-4], the 50% growth inhibitory concentration (GI50) in experiment [1] and in experiment [2] was under 500 nM in each case.

For the compound `CCS(=O)(=O)c1ccc(Oc2cccc(OCCOC3CCN(c4ncc(C(=O)N[C@H]5C(C)(C)[C@H](Oc6ccc(C#N)c(Cl)c6)C5(C)C)cn4)CC3)c2)c(-c2cn(C)c(=O)c3[nH]ccc23)c1` [Compound I-55, N-((1r, 3r)-3-(3-chloro-4-cyanophenoxy)-2,2,4,4-tetramethylcyclobutyl)-2-(4-(2-(3-(4-(ethylsulfonyl)-2-(6-methyl-7-oxo-6,7-dihydro-1H-pyrrolo[2,3-c]pyridin-4-yl)phenoxy)phenoxy)ethoxy)piperidin-1-yl)pyrimidine-5-carboxamide], the GI50 (in experiment [1]; in experiment [2]; in the experiment with VCaP cells (Homo sapiens)) was under 500 nM throughout.

In the case of `CCS(=O)(=O)Nc1ccc(-n2ccc(OCCOC3CCN(c4ncc(C(=O)NC5C(C)(C)C(Oc6ccc(C#N)c(Cl)c6)C5(C)C)cn4)CC3)cc2=O)c(-c2cn(C)c(=O)c3[nH]ccc23)c1` (stereo not shown) [Compound I-112, N-[3-(3-chloro-4-cyano-phenoxy)-2,2,4,4-tetramethyl-cyclobutyl]-2-[4-[2-[[1-[4-(ethylsulfonylamino)-2-(6-methyl-7-oxo-1H-pyrrolo[2,3-c]pyridin-4-yl)phenyl]-2-oxo-4-pyridyl]oxy]ethoxy]-1-piperidyl]pyrimidine-5-carboxamide], the GI50 in experiment [1] is under 500 nM; in experiment [2], over 3000 nM; in the experiment with VCaP cells (Homo sapiens), over 3000 nM.

In the case of `CCS(=O)(=O)Nc1ccc(Oc2cccc(OCCN3CCN(c4ncc(C(=O)N[C@H]5C(C)(C)[C@H](Oc6ccc(C#N)c(Cl)c6)C5(C)C)cn4)CC3)c2)c(-c2cn(C)c(=O)c3[nH]ccc23)c1` [Compound I-77], the concentration for 50% growth inhibition (GI50) (in experiment [1]; in experiment [2]; in the experiment on VCaP cells (Homo sapiens)) was under 500 nM each time.

`CCS(=O)(=O)Nc1ccc(Oc2cccc(C(=O)N(C)CCOC3CCN(c4ncc(C(=O)N[C@H]5C(C)(C)[C@H](Oc6ccc(C#N)c(Cl)c6)C5(C)C)cn4)CC3)c2)c(-c2cn(C)c(=O)c3[nH]ccc23)c1` [Compound I-66, N-((1r, 3r)-3-(3-chloro-4-cyanophenoxy)-2,2,4,4-tetramethylcyclobutyl)-2-(4-(2-(3-(4-(ethylsulfonamido)-2-(6-methyl-7-oxo-6,7-dihydro-1H-pyrrolo[2,3-c]pyridin-4-yl)phenoxy)-N-methylbenzamido)ethoxy)piperidin-1-yl)pyrimidine-5-carboxamide]: the GI50 was under 500 nM in experiment [1], over 3000 nM in experiment [2] and under 500 nM in the experiment on VCaP cells (Homo sapiens).

Turning to `CCS(=O)(=O)Nc1ccc(Oc2cccc(N(C)CCN(C)C3CCN(c4ncc(C(=O)N[C@H]5C(C)(C)[C@H](Oc6ccc(C#N)c(Cl)c6)C5(C)C)cn4)CC3)c2)c(-c2cn(C)c(=O)c3[nH]ccc23)c1` [Compound I-86], the GI50 (in experiment [1]; in experiment [2]; in the experiment with VCaP cells (Homo sapiens)) was under 500 nM each time.

`CCS(=O)(=O)Nc1ccc(Oc2cccc(OCCCCOC3CCN(c4ncc(C(=O)N[C@H]5C(C)(C)[C@H](Oc6ccc(C#N)c(Cl)c6)C5(C)C)cn4)CC3)c2)c(-c2cn(C)c(=O)c3[nH]ccc23)c1` [Compound I-15]: the figures for the GI50 (in experiment [1]; in experiment [2]; in the experiment on VCaP cells (Homo sapiens)) were under 500 nM, 500 to 1500 nM and under 500 nM, respectively.

For the compound `CC(C)c1ccc(Oc2cccc(OCCC3CCN(c4ncc(C(=O)N[C@H]5C(C)(C)[C@H](Oc6ccc(C#N)c(Cl)c6)C5(C)C)cn4)CC3)c2F)c(-c2cn(C)c(=O)c3[nH]ccc23)c1` [Compound I-132], the concentration for 50% growth inhibition (GI50) (in experiment [1]; in experiment [2]; with VCaP cells) was over 3000 nM in each case.

On to `CCS(=O)(=O)Nc1ccc(Oc2cccc(OCCCN3CCN(CC4CCN(c5ncc(C(=O)N[C@H]6C(C)(C)[C@H](Oc7ccc(C#N)c(Cl)c7)C6(C)C)cn5)CC4)CC3)c2)c(-c2cn(C)c(=O)c3[nH]ccc23)c1` [Compound I-33], for which the GI50 (in experiment [1]; in experiment [2]; in the experiment on VCaP cells (Homo sapiens)) was under 500 nM throughout.

On to `CCS(=O)(=O)Nc1ccc(Oc2cccc(OCCOCCCOC3CCN(c4ncc(C(=O)N[C@H]5C(C)(C)[C@H](Oc6ccc(C#N)c(Cl)c6)C5(C)C)cn4)CC3)c2)c(-c2cn(C)c(=O)c3[nH]ccc23)c1` [Compound I-16], for which the GI50 (in experiment [1]; in experiment [2]; in the experiment with VCaP cells (Homo sapiens)) was under 500 nM in each case.

Consider `CCS(=O)(=O)Nc1cc(F)c(Oc2cccc(OCCOC3CCN(c4ncc(C(=O)N[C@H]5C(C)(C)[C@H](Oc6ccc(C#N)c(Cl)c6)C5(C)C)cn4)CC3)c2)c(-c2cn(C)c(=O)c3[nH]ccc23)c1` [Compound I-161], for which the 50% growth inhibitory concentration (GI50) in experiment [1] was under 500 nM; in experiment [2] it was over 3000 nM; in the experiment on VCaP cells (Homo sapiens), under 500 nM.

In the case of `Cn1cc(-c2cc(NS(=O)(=O)C3CC3)ccc2Oc2cccc(CCOC3CCN(c4ncc(C(=O)N[C@H]5C(C)(C)[C@H](Oc6ccc(C#N)c(Cl)c6)C5(C)C)cn4)CC3)c2)c2cc[nH]c2c1=O` [Compound I-145], the concentration for 50% growth inhibition (GI50) was under 500 nM in experiment [1], over 3000 nM in experiment [2] and 1500 to 3000 nM in the experiment on VCaP cells.

On to `Cn1cc(-c2cc(CS(C)(=O)=O)ccc2Oc2cccc(OCCOC3CCN(c4ncc(C(=O)N[C@H]5C(C)(C)[C@H](Oc6ccc(C#N)c(Cl)c6)C5(C)C)cn4)CC3)c2)c2cc[nH]c2c1=O` [Compound I-53, N-((1r, 3r)-3-(3-chloro-4-cyanophenoxy)-2,2,4,4-tetramethylcyclobutyl)-2-(4-(2-(3-(2-(6-methyl-7-oxo-6,7-dihydro-1H-pyrrolo[2,3-c]pyridin-4-yl)-4-((methylsulfonyl)methyl)phenoxy)phenoxy)ethoxy)piperidin-1-yl)pyrimidine-5-carboxamide], for which the concentration for 50% growth inhibition (GI50) (in experiment [1]; in experiment [2]; with VCaP cells (Homo sapiens)) was under 500 nM throughout.

Turning to `Cn1cc(-c2cc(NS(=O)(=O)C(F)(F)F)ccc2Oc2cccc(OCCOC3CCN(c4ncc(C(=O)N[C@H]5C(C)(C)[C@H](Oc6ccc(C#N)c(Cl)c6)C5(C)C)cn4)CC3)c2F)c2cc[nH]c2c1=O` [Compound I-163, N-[3-(3-chloro-4-cyano-phenoxy)-2,2,4,4-tetramethyl-cyclobutyl]-2-[4-[2-[2-fluoro-3-[2-(6-methyl-7-oxo-1H-pyrrolo[2,3-c]pyridin-4-yl)-4-(trifluoromethylsulfonylamino)phenoxy]phenoxy]ethoxy]-1-piperidyl]pyrimidine-5-carboxamide], the concentration for 50% growth inhibition (GI50) in experiment [1] was under 500 nM; in experiment [2] it was over 3000 nM; with VCaP cells (Homo sapiens), 500 to 1500 nM.

Turning to `CCS(=O)(=O)Nc1ccc(Oc2cccc(N(C)CCOC3CCN(c4ncc(C(=O)N[C@H]5C(C)(C)[C@H](Oc6ccc(C#N)c(Cl)c6)C5(C)C)cn4)CC3)c2)c(-c2cn(C)c(=O)c3[nH]ccc23)c1` [Compound I-113], the GI50 (in experiment [1]; in experiment [2]; in the experiment on VCaP cells (Homo sapiens)) was under 500 nM in each case.

With `CCS(=O)(=O)Nc1ccc(Oc2cccc(OCCOCCOCCN(C)c3ncc(C(=O)N[C@H]4C(C)(C)[C@H](Oc5ccc(C#N)c(Cl)c5)C4(C)C)cn3)c2)c(-c2cn(C)c(=O)c3[nH]ccc23)c1` [Compound I-2], the 50% growth inhibitory concentration (GI50) in experiment [1] was under 500 nM; in experiment [2] it was 1500 to 3000 nM.
